Experimental data: article PMC6934184, “Selective DNA-PKcs inhibition extends the therapeutic index of localized radiotherapy and chemotherapy” (The Journal of Clinical Investigation, 2019)

Molecular target: T1, PDGFRA T674I (Homo sapiens, UniProt P16234, T674I)
T1 construct: purchased Thermo Fisher Scientific (Life Technologies) SelectScreen
Assay: SelectScreen Z'LYTE
Type: biochemical
In short: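 Percent values come from Thermo SelectScreen profiling of NU5455, combining activity and binding assays. CSF1R was run in Z'LYTE format at Km app ATP, and CAMK1 in Adapta format with ATP listed at 10.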

T1 sequence (P16234 24-1089 T674I): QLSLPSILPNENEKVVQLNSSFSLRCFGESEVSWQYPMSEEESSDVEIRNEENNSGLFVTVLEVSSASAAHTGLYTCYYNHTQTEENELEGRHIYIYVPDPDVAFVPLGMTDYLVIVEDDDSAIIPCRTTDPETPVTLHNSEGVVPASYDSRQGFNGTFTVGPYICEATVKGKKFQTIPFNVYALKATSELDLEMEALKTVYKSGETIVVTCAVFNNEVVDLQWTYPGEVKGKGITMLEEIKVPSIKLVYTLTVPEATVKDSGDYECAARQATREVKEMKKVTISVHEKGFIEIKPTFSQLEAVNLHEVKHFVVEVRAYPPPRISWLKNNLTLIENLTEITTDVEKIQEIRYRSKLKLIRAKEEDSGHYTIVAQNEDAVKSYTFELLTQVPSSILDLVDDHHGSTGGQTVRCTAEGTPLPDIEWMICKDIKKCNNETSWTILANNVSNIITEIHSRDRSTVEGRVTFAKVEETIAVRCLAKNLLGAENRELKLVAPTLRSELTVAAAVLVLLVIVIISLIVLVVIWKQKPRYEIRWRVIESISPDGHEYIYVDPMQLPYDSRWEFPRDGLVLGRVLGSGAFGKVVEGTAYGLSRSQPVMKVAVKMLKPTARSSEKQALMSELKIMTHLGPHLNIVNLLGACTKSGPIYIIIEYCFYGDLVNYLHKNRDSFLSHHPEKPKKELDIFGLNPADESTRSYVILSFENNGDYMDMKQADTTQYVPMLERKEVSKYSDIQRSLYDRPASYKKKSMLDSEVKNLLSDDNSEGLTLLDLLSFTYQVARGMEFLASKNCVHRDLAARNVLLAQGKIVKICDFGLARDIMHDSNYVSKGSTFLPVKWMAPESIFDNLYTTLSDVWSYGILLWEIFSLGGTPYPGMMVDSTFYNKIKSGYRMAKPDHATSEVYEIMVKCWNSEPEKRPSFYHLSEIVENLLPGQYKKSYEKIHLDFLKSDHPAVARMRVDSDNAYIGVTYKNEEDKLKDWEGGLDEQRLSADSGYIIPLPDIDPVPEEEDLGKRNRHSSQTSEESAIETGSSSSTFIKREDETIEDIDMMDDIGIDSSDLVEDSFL

CN(C(=O)CN1CCOCC1)c1ccc2sc3c(-c4cccc5c(=O)cc(N6CC7CCC(C6)O7)oc45)cccc3c2c1 [NU5455]
inhibition at 1 µM: -8.9%
